In experiment [1] the test system is tyrosinase (monophenolase and diphenolase activity) in the presence of HgCl2. The experiment in a line: Effect of premixing amino acids with HgCl2 on tyrosinase inhibition (protection of enzyme activity). It counts as biochemical, mushroom. How it is done: According to the results of docking study, we furtherly checked the interactions between HgCl2 and amino acid. We assumed that if HgCl2 indeed binds to the amino acid residues of the enzyme, such as His, Val, Glu, and Ala, premixing the amino acid with HgCl2 would affect the inhibitory effects. Thus, the monophenolase and diphenolase activity of tyrosinase both were determined by adding the mixture of HgCl2 and amino acid. The mixture was prepared just before use by adding an aliquot of 200 μL HgCl2 solution to the equal volume of amino acid solution, and which was allowed to react for 10 mins at room temperature. […] In brief, 5 and 10 mmol/L solutions of His, HgCl2 were prepared beforehand, and the mixture was produced by mixing the His and HgCl2 solutions (10 mmol/L) in the volume ratio of 1:1. The spectra of the samples at the wavelengths between 200 and 800 nm were scanned by using UV spectrophotometer (UV 2550, SHIMADZU).The experiment was repeated three times.

Another experiment addresses T1, immobilized tyrosinase (Agaricus bisporus, UniProt C7FF04).
T1 construct: purchased Sigma-Aldrich
It counts as biochemical, mushroom. How it is done:
Experiments were conducted to confirm the inhibitory mechanism of HgCl2 on tyrosinase furtherly by using immobilized tyrosinase. In brief, we added 200 µL of diluted tyrosinase (2500 U/mL) to each well of a 24-well polystyrene plate and then covered the plate and incubated it at 4°C overnight to produce immobilized tyrosinase. The plate was brought to room temperature, and we thoroughly decanted the solution from wells and washed the wells two times with PBS to remove the unfixed enzyme. We added 3 mL of inhibitor solution to each well and incubated them at room temperature for 30 mins to assure the fully reaction between the inhibitor and the enzyme, discarding the liquid following by washing the wells two times with PBS to remove the excess inhibitor. Then, 3 mL of PBS was added to each well, and they stood for 10 mins to make the dissociation of inhibitor-tyrosinase complex. WE thoroughly decanted the solution from wells to remove the dissociated inhibitor (the procedure was repeated three times). Finally, 3 mL of substrate (dopa) was added to each well and react at room temperature for 30 mins to test the residual activity of tyrosinase.

Experiment [2] has as its target T2, mushroom tyrosinase (diphenolase activity) (Agaricus bisporus, UniProt C7FF04). It counts as biochemical. Particulars: substrate dopa 0.5 mmol/L, tyrosinase 13.33 U/mL, pH 6.8, 305 K.
Target sequence in this assay (C7FF04 1-392): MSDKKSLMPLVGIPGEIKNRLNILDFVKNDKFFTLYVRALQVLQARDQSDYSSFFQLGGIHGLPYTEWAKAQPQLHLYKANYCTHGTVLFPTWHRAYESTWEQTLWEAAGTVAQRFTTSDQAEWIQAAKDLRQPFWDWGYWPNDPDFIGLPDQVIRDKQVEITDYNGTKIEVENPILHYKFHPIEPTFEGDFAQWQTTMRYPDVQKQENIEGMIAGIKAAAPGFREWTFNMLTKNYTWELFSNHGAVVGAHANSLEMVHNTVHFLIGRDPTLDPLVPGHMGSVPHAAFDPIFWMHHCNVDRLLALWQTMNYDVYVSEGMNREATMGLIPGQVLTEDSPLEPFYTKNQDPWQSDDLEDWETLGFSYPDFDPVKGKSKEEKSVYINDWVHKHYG
Method: The assays were carried out by using 3 mL of reaction system containing 0.5 mmol/L substrate (dopa) in 50 mmol/L PBS (pH = 6.8) at 305 K. The final concentration of tyrosinase was 13.33 U/mL. […] Relative enzymatic activity (%) = (A1-A3)/A2×100%. The experiment was repeated three times. The IC50 value was calculated as the concentration (leading to achieve 50% inhibition) according to the equation, which is obtained by curve fitting of the enzyme activity versus the concentrations of inhibitor.
The next experiment deals with T3, tyrosinase (Agaricus bisporus, UniProt C7FF04).
T3 construct: purchased Sigma-Aldrich
T3 sequence (C7FF04 1-392): as above
The experiment in a line: Intrinsic fluorescence quenching of tyrosinase. Conditions: for Kq (quenching rate constant): Kq = Ksv/τ0, τ0 = 10^-8 s. It counts as binding, mushroom. How it is done:
The fluorescence emission spectra were obtained using Spectrofluorometer FS5 (Edinburgh Instruments, England) equipped with a 150 W xenon lamp and a thermostat bath. We added a 2.0 mL aliquot of tyrosinase solution (400 U/mL) to the quartz cuvette (1 cm path length) and gradually added 2 mmol/L solution of HgCl2 to give concentrations ranged from 0 to 400 μmol/L. After five-minute incubation periods, fluorescence in the range of 290–500 nm was measured while the excitation wavelength was fixed at 280 nm. All the fluorescence data collected from these experiments were corrected for absorption of excitation light and re-absorption of emitted light according to the following equation: ([Wang et al., 2015])
where F c and F m represent the corrected and measured fluorescence, respectively. A1 and A2 are the absorbance of HgCl2 at excitation and emission wavelengths, respectively.
To identify the interaction mechanism of HgCl2 on tyrosinase, the data of fluorescence quenching were presented in the form of a Stern-Volmer plot, using the following equation:
(4) F0/F=1+Kqτ0[Q]=1+Ksv[Q]
where, F 0 and F represent the steady-state fluorescence intensities in the absence and presence of HgCl2 (quencher), respectively, [Q] denotes the concentration of HgCl2, K q is the quenching rate constant of the biomolecule (K q = K sv/τ0), K sv is the Stern–Volmer dynamic quenching constant, and τ0 is the average lifetime of the fluorophore in the absence of quencher (τ0 = 10^-8 s). The value of K sv determined by the linear regression plot of F0/F vs. [Q] at 298 and 304 K were (2.14 ± 0.05) × 10^4 and 1.83 ± 0.03 × 10^4 L/mol, respectively. […] K sv values decreased gradually with the increase of the temperatures, which manifested that the fluorescence quenching of tyrosinase by HgCl2 was a static quenching process ([Lin et al., 2018]).
For static quenching interactions, if there are similar and independent sites in biological molecules, the apparent binding constants (K a) and the number of binding sites (n) can be obtained from the following equation:
(5) logF0−F/F=logKa+nlog[Q]

Experiment [3] concerns the target T2, mushroom tyrosinase (diphenolase activity). The experiment in a line: Kinetic analysis of inhibition mechanism and type (enzyme-concentration plots, Lineweaver-Burk plot, secondary plot). It counts as biochemical. The arrangement: purchased Sigma-Aldrich. An excerpt:
(1) 1/ν=Km/Vmax(1+[I]/Ki)1/[S]+1+[I]/Ki/Vmax and a secondary plot is presented below
(2) In.=[I]/KiVmax+1/Vmax where ν is velocity of the enzyme reaction calculated by a change in absorbance at the wavelength of 475 nm per minute in the absence and presence of HgCl2. K m and K i are the Michaelis–Menten constant and inhibition constant, respectively. The values of K m can be calculated from the equation (1). [I] and [S] are the concentrations of inhibitor and substrate, respectively. In. is the intercept value of the Lineweaver–Burk curve. K i should be calculated by the secondary plot of In. vs. [I].
The relationship between enzyme activity (expressed as the rate of the oxidation reaction) and its concentration (6.67, 13.33, 20, 26.67, and 33.33 U/mL) in the presence of different concentrations of HgCl2 (0, 4.17, 16.67, 33.33, and 66.67 μmol/L) was investigated.
Target sequence in this assay (C7FF04 1-392 limits assumed): as the sequence (C7FF04 1-392) above

The target in experiment [4] is T4, mushroom tyrosinase (monophenolase activity) (Agaricus bisporus, UniProt C7FF04).
T4 construct: purchased Sigma-Aldrich
T4 sequence (C7FF04 1-392 limits assumed): as the sequence (C7FF04 1-392) above
It counts as biochemical. On the procedure: The method was modified based on the previous description ([Chen et al., 2016]). […] The appropriate blanks (containing both tyrosine and HgCl2 but without tyrosinase) were tested and subtracted to correct the absorbance.

Where [5] appears, read: from plot of log[(F0-F)/F] vs log[Q].

This is an account of results in publication PMC7068222, “Inhibition of Tyrosinase by Mercury Chloride: Spectroscopic and Docking Studies” (Frontiers in Pharmacology, 2020).

Read-outs that look alike come from different tables or passages of the source.

T1 sequence (C7FF04 1-392 limits assumed): as the sequence (C7FF04 1-392) above

In the case of `C[C@H](N)C(=O)O` [Ala, alanine], the “effect on protecting the monophenolase activity in the presence of HgCl2” value in experiment [1] (amino acid premixed with HgCl2) is given as “no effects”.
Still for that read-out and setting: for `N[C@@H](CCC(=O)O)C(=O)O` [Glu, glutamate] the value was “no effects”.
Turning to `CCO` [95% ethanol, ethanol, reference compound], the “Relative activity (%) of immobilized tyrosinase after inhibitor treatment and washing” value on immobilized tyrosinase was 3.34%.
For `[Cl][Hg][Cl]` [HgCl2, Mercuric chloride], the half-inhibitory concentration (IC50) (usually the midpoint of a concentration-inhibition curve) in experiment [2] turned out to be 77.9 µM. In addition, on tyrosinase (298 K), the “Ksv (Stern-Volmer quenching constant)” value was “(2.14 ± 0.05) × 10^4 L/mol” and the “Kq (quenching rate constant)” value is on record as “(2.14 ± 0.05) × 10^12 L/mol/s”. Also, at tyrosinase (304 K), the “Ksv (Stern-Volmer quenching constant)” value was 1.83 ± 0.03 × 10^4 L/mol and the “Kq (quenching rate constant)” value is “(1.83 ± 0.03) × 10^12 L/mol/s”. Also, at tyrosinase (setting [5]), the “Ka (apparent binding constant)” value was “(2.87 ± 0.02) × 10^4 L/mol” and the “n (number of binding sites)” value turned out to be 0.96 ± 0.01. In experiment [3] (diphenolase activity, tyrosinase 13.33 U/mL), the “inhibition type (Lineweaver-Burk)” value was “non-competitive inhibition”. For the same compound, in experiment [3] (diphenolase, secondary plot of intercept vs inhibitor concentration, read-out: Ki (inhibition constant)), the Ki (commonly the equilibrium dissociation constant of an inhibitor or competing ligand from its target) was determined as 29.4 µM. Moreover, in experiment [3] (plots of activity vs enzyme concentration, HgCl2 0-66.67 μmol/L), the “inhibition mechanism (reversibility)” value is “irreversible”. Besides, the “Relative activity (%) of immobilized tyrosinase after inhibitor treatment and washing” value at immobilized tyrosinase (kojic acid and HgCl2 666.67 μmol/L, 30 min incubation, PBS treatment = 100%, substrate dopa) was 28.32%. The “lag time of monophenolase reaction at highest inhibitor concentration” value in experiment [4] (prolonged with increasing inhibitor concentration, without inhibitor 1.44 min (kojic acid series), 2.00 min (HgCl2 series)) amounted to 13.4 min. This compound also showed an IC50 in experiment [4] (substrate tyrosine 0.5 mmol/L, tyrosinase 33.33 U/mL, pH 6.8, 305 K) of 30 µM.
For `CC(C)[C@H](N)C(=O)O` [Val, valine], the “effect on protecting the monophenolase activity in the presence of HgCl2” value in experiment [1] (amino acid premixed with HgCl2) was “no effects”.
Turning to `N[C@@H](Cc1c[nH]cn1)C(=O)O` [His, Histidine], the “protecting capability on diphenolase activity in the presence of HgCl2” value in experiment [1] (His 10.42 μmol/L) is 48.83 ± 1.89%. In experiment [1] (His 666.67 μmol/L), the “protecting capability on diphenolase activity in the presence of HgCl2” value was determined as 83.43 ± 2.56%. Moreover, in experiment [1] (amino acid premixed with HgCl2), the “effect on protecting the diphenolase activity in the presence of HgCl2” value is given as “significant effect” and the “effect on protecting the monophenolase activity in the presence of HgCl2” value is “protect the monophenolase activity”.
